{"source": "patent US20120122908A1", "about": "“Novel C-4 Substituted Retinoids” (University of Maryland, priority 2000, published 2012)", "key": {"PC-3 cells": {"tested_on": "PC-3 cells", "settings": "9 days, with ATRA (1 nM), FIG. 16", "method": "Experiments are conducted on two prostate cancer cell lines, LNCaP cells and PC-3 cells.\nThis method also is repeated using PC-3 cells.\nPC-3 cells were incubated with test compounds for 9 days with medium changes on days 2, 5, and 7 and proliferation assessed as described above."}, "MCF-7Ca tumors": {"tested_on": "MCF-7Ca tumors", "experiment": "Growth of MCF-7Ca tumors in mice", "format": "in vivo", "settings": "10 mg/kg, after twenty-eight days", "protocol": "FIG. 12. VN/14-1RA inhibition of growth of MCF-7Ca tumors in nude mice.\nLNCaP cells are cultured as described above. Subconfluent cell are scraped into DPBS, counted and suspended in Matrigel (3×10^7 cells/mL). Male SCID mice 4-6 weeks old are obtained from NCI, Frederick, Md. Each mouse is inoculated s.c. with 0.1 mL of the cell suspension at two sites. Growth rate are determined from tumor volumes using calipers using well-known techniques (Yue W, Wang J, Savinov A, Brodie A, Effect of aromatase inhibitors on growth of mammary tumors in a nude mouse model, Cancer Res, July 15; 55(14):3073-7 (1995). Tumor volumes are calculated according to the equation: V=4/3×π×r1^2×r2 (r1<r2). Tumors are allowed to grow for 4-5 weeks following cell inoculation. Mice are then grouped (6 mice per group) for castration or treatment with vehicle, liarozole (as a comparison), or one of the C-4 substituted ATRA analogs (at various concentration based on IC50 and/or Ki values for each novel compound, mg/kg/day). The route of administration of C-4 substituted ATRA analogs include s.c., i.m., i.p., and oral. Tumors are measured weekly for 4-5 weeks of treatment and tumor volumes calculated. Blood is collected from the euthanized animals that are autopsied 1 hour after the last injection. Tumors are excised, weighed and stored at −80° C. until required. […]"}}, "data": [{"compound": "CC1=C(/C=C/C(C)=C/C=C/C(C)=C/C(=O)O)C(C)(C)CCC1n1ccnc1", "note": "(racemic) [VN/14-1, (±)-4-(1H-imidazole-1-yl)retinoic acid]", "values": [{"measurement": "antiproliferative effect on PC-3 cells", "setting": "PC-3 cells", "result": "clearly more effective than liarozole"}, {"measurement": "size of MCF-7Ca tumors relative to control group", "setting": "MCF-7Ca tumors", "result": "one-half"}]}]}
